These results are taken from ChEMBL document CHEMBL4138307, “Click-Addressable Cassette for Photoaffinity Labeling” (ACS Med Chem Lett, 2018).

The structures appear in SMILES notation. The source made the active and inactive calls. The calls are words filed in the database; no cut-off is given here.

The target in assay [1] is Carbonic anhydrase 9 (Homo sapiens) (UniProt Q16790). Nature of the assay: Binding affinity to carbonic anhydrase 9 in human MDA-MB-231 cell lysate at 5 uM preincubated for 3 hrs in dark followed by irradiation with LED UV flashlight at 365 nm for 30 mins by biotin-azide/neutravidin agarose gel based Western blot analysis. A general note: In western blotting, separated proteins are transferred to a membrane and probed.

Assay [2] shares this target. The experiment in a line: Binding affinity to carbonic anhydrase 9 in human MDA-MB-231 cell lysate at 5 uM preincubated for 3 hrs in dark followed by irradiation with LED UV flashlight at 365 nm for 30 mins in presence of 4-(2-((4-(4-(benzyl(prop-2-yn-1-yl)amino)piperidin-1-yl)-6-chloro-1,3,5-triazin-2-yl)amino)ethyl)benzenesulfonamide by biotin-azide/neutravidin agarose gel based Western blot analysis.

For assay [3] the target is unchanged. Nature of the assay: Binding affinity to recombinant carbonic anhydrase 9 (unknown origin) at 5 to 10 uM preincubated for 2 hrs in dark followed by irradiation with LED UV flashlight at 365 nm for 30 mins in presence of 50 fold excess of 4-(2-((4-(4-(benzyl(prop-2-yn-1-yl)amino)piperidin-1-yl)-6-chloro-1,3,5-triazin-2-yl)amino)ethyl)benzenesulfonamide by SDS-PAGE based fluorescence imaging.

The target is the same in assay [4]. The experiment in a line: Binding affinity to recombinant carbonic anhydrase 9 (unknown origin) at 5 to 10 uM preincubated for 2 hrs in dark followed by irradiation with LED UV flashlight at 365 nm for 30 mins in presence of azide fluor 488 staining by SDS-PAGE based fluorescence imaging.
For assay [5] the target is unchanged. The experiment in a line: Binding affinity to recombinant carbonic anhydrase 9 (unknown origin) at 5 to 10 uM preincubated for 2 hrs in dark followed by irradiation with LED UV flashlight at 365 nm for 30 mins in presence of coomassie brilliant blue G250 staining by SDS-PAGE based fluorescence imaging.
In assay [6] the target is NT-3 growth factor receptor (Homo sapiens) (UniProt Q16288). Nature of the assay: Binding affinity to recombinant TrkC (unknown origin) at 10 to 25 uM preincubated for 1 hr in dark followed by irradiation with LED UV flashlight at 365 nm for 30 mins in presence of azide fluor 488 staining by SDS-PAGE based fluorescence imaging.
For assay [7] the target is unchanged. Nature of the assay: Binding affinity to recombinant TrkC (unknown origin) at 10 to 25 uM preincubated for 1 hr in dark followed by irradiation with LED UV flashlight at 365 nm for 30 mins in presence of 80 fold excess of (2S,2'S)-1,1'-((6-(4-(benzyl(prop-2-yn-1-yl)amino)piperidin-1-yl)-1,3,5-triazine-2,4-diyl)bis(piperazine-4,1-diyl))bis(2-(4-((1S,2S)-1-amino-2-methylbutyl)-1H-1,2,3-triazol-1-yl)-3-(4-hydroxyphenyl)propan-1-one) by SDS-PAGE based fluorescence imaging.

The target is the same in assay [8]. The experiment in a line: Binding affinity to TrkC (unknown origin) expressed in mouse NIH3T3 cell lysate at 10 uM preincubated for 3 hrs in dark followed by irradiation with LED UV flashlight at 365 nm for 30 mins by biotin-azide/neutravidin agarose gel based Western blot analysis.
Assay [9] shares this target. Nature of the assay: Binding affinity to recombinant TrkC (unknown origin) at 10 to 25 uM incubated for 1 hr in dark in presence of azide fluor 488 staining by SDS-PAGE based fluorescence imaging.

Chain of NT-3 growth factor receptor (Homo sapiens) (Q16288 32-839 limits assumed): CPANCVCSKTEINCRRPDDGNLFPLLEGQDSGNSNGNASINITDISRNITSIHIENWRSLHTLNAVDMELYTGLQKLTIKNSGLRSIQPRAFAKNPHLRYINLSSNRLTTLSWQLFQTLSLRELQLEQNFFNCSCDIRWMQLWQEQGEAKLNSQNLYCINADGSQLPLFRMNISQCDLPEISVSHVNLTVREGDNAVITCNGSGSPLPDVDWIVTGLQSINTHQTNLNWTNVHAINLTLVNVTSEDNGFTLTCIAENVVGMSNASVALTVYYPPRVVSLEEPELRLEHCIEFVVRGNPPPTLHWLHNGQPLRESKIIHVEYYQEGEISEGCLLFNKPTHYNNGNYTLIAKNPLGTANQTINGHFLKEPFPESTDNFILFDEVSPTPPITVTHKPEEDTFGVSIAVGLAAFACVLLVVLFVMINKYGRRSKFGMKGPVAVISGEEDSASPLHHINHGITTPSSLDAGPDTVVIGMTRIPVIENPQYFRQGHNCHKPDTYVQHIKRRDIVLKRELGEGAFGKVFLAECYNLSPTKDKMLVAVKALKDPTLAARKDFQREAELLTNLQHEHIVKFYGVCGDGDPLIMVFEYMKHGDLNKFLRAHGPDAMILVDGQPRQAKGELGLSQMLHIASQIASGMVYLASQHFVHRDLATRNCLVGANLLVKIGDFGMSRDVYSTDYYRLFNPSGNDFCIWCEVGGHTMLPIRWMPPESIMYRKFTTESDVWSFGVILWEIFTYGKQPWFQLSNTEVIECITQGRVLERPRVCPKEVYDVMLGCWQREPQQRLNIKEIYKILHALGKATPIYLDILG

In the case of `C#CCN(Cc1ccc(C2(C(F)(F)F)N=N2)cc1)C1CCN(c2nc(Cl)nc(NCCc3ccc(S(N)(=O)=O)cc3)n2)CC1`, the result in [1], in assay [4] and in assay [5] was Active. In addition, the outcome in assay [2] and in assay [3] was inactive.
Regarding `C#CCN(Cc1ccc(C2(C(F)(F)F)N=N2)cc1)C1CCN(c2nc(N3CCN(C(=O)[C@H](Cc4ccc(O)cc4)n4cc([C@@H](N)[C@@H](C)CC)nn4)CC3)nc(N3CCN(C(=O)[C@H](Cc4ccc(O)cc4)n4cc([C@@H](N)[C@@H](C)CC)nn4)CC3)n2)CC1`, the result in assay [6] and in assay [8] was Active. Further, the outcome in [7] and in assay [9] was inactive.
